# Experiments:
# [1] = system: acne lesions; experiment: BU aqueous solution applied to acne lesions in adolescents; format: in vivo; conditions: 0.5 molar (5.8% w/v) aqueous solution, twice daily, 5 adolescents
# Description: BU in an squeous solution: A 0.5 molar (5.8% w/v) solution of BU was applied twice daily with Q tips to acne lesions in 5 adolescents. BU was applied to cystic purulent lesions, to non cystic lesions with erythema and to early lesions with minimal inflammation. The inflammatory response resolved in all lesions within 24-48 hours, whereas purulent cystic lesions healed without scarring within 3-7 days.
# [2] = system: Candida albicans; experiment: Plate count after one hour contact with butylurea solution; format: cell-based; conditions: 0.4M BU, vs saline control
# Description: (§1) Preparation of Sample: 11.6 grams of butyl urea (BU) sample was weighed accurately and dissolved in de-ionized water to 100 ml into 100 ml volumetric flask and mixed to form a 1M (11.6% w/v) solution. Then, 10.0 ml of the 1M solution was mixed with 12.7 ml de-ionized water to form a 0.44M (5.1% w/v) solution. (10.0 ml×1.0M÷22.7 ml=0.44M). Finally, the 0.44M solution was filtered through sterile syringe filters to sterilize.
# (§2) Procedure: For the 0.4M butylurea solutions, 4.5 ml was aliquoted into seven (7) 16×150 mm sterile glass test tubes. 4.5 ml sterile physiological saline was also aliquoted into seven (7) 16×150 […] sterile glass test tubes as a control.
# (§3) 0.6 ml of culture suspension was inoculated into 0.44M BU and saline control tube for each organism tested and mixed. After one hour contact time a 1.0 ml sample culture mixer was diluted serially into 10^6 into 9.0 ml GBL Stat Broth (TSB; 0.5% Leethen; 4% Tween 20 and 0.1% […]).
# (§4) One ml Aerobic Plate Count was performed from each dilution tubes using Trypticase Soy Agar. Plates were incubated at 37±° C. for 48 hours. Except Candida albicans plates were poured with Sabourad Dextrose Agar and incubated at 20 to 25° C. for 5 to 7 days. Colonies were counted using a Quebec Colony Counter.
# [3] = system: inflamed cystic lesions of acne; experiment: BU in polymer gel applied topically to patients with inflamed cystic lesions of acne; format: in vivo; conditions: polymer gel releasing 0.4 to 0.5 molar BU, 11 patients
# Description: BU in polymer gels: BU incorporated in a polymer gel designed to release the chemical within 30 minutes to 3 hours was administered topically to 11 patients with inflamed cystic lesions of acne. The BU end concentration to be released was between 0.4 to 0.5 molar. Applications to the lesions alone were made 3× daily for 1 week. […] The purulent discharge as well as the inflammatory component of all lesions resolved often within 24 hours.
# [4] = system: Staphylococcus aureus; experiment: Aerobic plate count after one hour contact with butylurea solution; format: cell-based; conditions: 0.4M BU, vs saline control
# Description: as §1, §2, §3, §4
# [5] = system: Streptococcus pyogenes; experiment: as above; format: cell-based; conditions: 0.4M BU, vs saline control
# Description: as §1, §2, §3, §4
smiles,measurement,setting,value
"CCCCNC(N)=O [BU, butyl urea]",Time to healing of purulent cystic lesions without scarring,[1],3 to 7 days
same,Time to resolution of inflammatory response in all lesions,[1],24 to 48 h
same,log Reduction in count,[2],0.4 log Reduction
same,Local adverse reactions,[3]; topical 3x daily for 1 week,no local adverse reactions were noted
same,Resolution of lesions by the end of the treatment,[3]; topical 3x daily for 1 week,Most of the lesions resolved
same,Time to resolution of purulent discharge and inflammatory component of all lesions,"[3]; topical 3x daily, 'often'",≤ 24 h
same,Reduction in bacterial count,[4],Not Active
same,log Reduction in bacterial count,[5],2 log Reduction
